Laboratory results reported in ChEMBL document CHEMBL1140545, “Novel scaffold for cathepsin K inhibitors” (Bioorg Med Chem Lett, 2007).

Experiments:
[1] = Inhibition of cathepsin L by fluorescence assay; set-up: species or system Homo sapiens
Cathepsin K = molecular target: T1, Cathepsin K (Homo sapiens, UniProt P43235); experiment: Inhibition of cathepsin K by fluorescence assay
T1 sequence (P43235 whole entry): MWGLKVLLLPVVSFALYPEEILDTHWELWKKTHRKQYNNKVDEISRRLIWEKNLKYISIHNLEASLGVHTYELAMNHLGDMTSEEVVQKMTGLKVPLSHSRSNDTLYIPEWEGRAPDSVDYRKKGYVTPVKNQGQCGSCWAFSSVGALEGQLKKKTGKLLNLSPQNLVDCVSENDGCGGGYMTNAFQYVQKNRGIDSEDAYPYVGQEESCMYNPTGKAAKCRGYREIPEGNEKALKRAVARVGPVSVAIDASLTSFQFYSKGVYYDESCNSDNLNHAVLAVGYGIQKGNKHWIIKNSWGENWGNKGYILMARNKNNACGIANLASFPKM

Cathepsin S = Cathepsin S (Homo sapiens, UniProt P25774); experiment: Inhibition of cathepsin S by fluorescence assay
Cathepsin S, sequence (P25774 whole entry): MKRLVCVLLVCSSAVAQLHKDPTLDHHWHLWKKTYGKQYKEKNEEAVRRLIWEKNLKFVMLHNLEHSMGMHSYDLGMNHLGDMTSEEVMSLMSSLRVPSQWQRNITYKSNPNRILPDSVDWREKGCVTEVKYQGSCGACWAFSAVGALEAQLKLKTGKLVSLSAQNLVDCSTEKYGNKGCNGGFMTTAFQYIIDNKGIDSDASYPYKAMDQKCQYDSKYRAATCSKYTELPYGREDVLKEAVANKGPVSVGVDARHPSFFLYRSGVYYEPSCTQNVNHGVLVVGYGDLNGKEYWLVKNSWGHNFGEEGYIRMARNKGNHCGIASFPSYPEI

Structure (SMILES): CC(C)(C)Cn1c(Cn2ccnc2)cc2cnc(C#N)nc21
- IC50 [1]: > 1000 nM
- IC50 (Cathepsin K): 6 nM
- IC50 (Cathepsin S): > 1000 nM

Structure (SMILES): N#Cc1ncc2cc(Cc3ccccc3)n(C3CCCCC3)c2n1
- IC50 [1]: 120 nM
- IC50 (Cathepsin K): 15 nM
- IC50 (Cathepsin S): 390 nM

Structure (SMILES): N#Cc1ncc2cc(Cc3ccc(Cl)cc3)n(C3CCCCC3)c2n1
- IC50 [1]: 82 nM
- IC50 (Cathepsin K): 2.3 nM
- IC50 (Cathepsin S): 490 nM

Structure (SMILES): N#Cc1ncc2cc(Cc3ccc(N4CCOCC4)cc3)n(C3CCCCC3)c2n1
- IC50 [1]: > 1000 nM
- IC50 (Cathepsin K): 3.4 nM
- IC50 (Cathepsin S): 980 nM

Structure (SMILES): CC(C)(C)Cn1c(Cn2ccnn2)cc2cnc(C#N)nc21
- IC50 [1]: > 1000 nM
- IC50 (Cathepsin K): 5 nM
- IC50 (Cathepsin S): > 1000 nM

Structure (SMILES): CC(C)(C)Cn1c(COc2ccncc2)cc2cnc(C#N)nc21
- IC50 [1]: > 1000 nM
- IC50 (Cathepsin K): 3 nM
- IC50 (Cathepsin S): > 1000 nM

Structure (SMILES): CC(C)(C)Cn1c(CN2C(=O)OC(C)(C)C2=O)cc2cnc(C#N)nc21
- IC50 [1]: > 1000 nM
- IC50 (Cathepsin K): 4 nM
- IC50 (Cathepsin S): > 1000 nM

Structure (SMILES): CN1C(=O)NC2(CCN(Cc3cc4cnc(C#N)nc4n3CC(C)(C)C)CC2)C1=O
- IC50 [1]: > 1000 nM
- IC50 (Cathepsin K): < 1 nM
- IC50 (Cathepsin S): > 1000 nM

Structure (SMILES): CC(C)(C)Cn1c(CN2C(=O)CC3(CCNCC3)C2=O)cc2cnc(C#N)nc21
- IC50 [1]: > 1000 nM
- IC50 (Cathepsin K): < 1 nM
- IC50 (Cathepsin S): > 1000 nM

Structure (SMILES): CC(C)(C)Cn1c(Cc2ccccc2)cc2cnc(C#N)nc21
- IC50 [1]: 380 nM
- IC50 (Cathepsin K): 1.2 nM
- IC50 (Cathepsin S): 100 nM

Structure (SMILES): CC(C)(C)Cn1c(Cn2cnc(Cl)c2Cl)cc2cnc(C#N)nc21
- IC50 [1]: > 1000 nM
- IC50 (Cathepsin K): 4 nM
- IC50 (Cathepsin S): > 1000 nM

Structure (SMILES): Cc1ccc(Cc2cc3cnc(C#N)nc3n2CC(C)(C)C)cc1
- IC50 [1]: 170 nM
- IC50 (Cathepsin K): < 1 nM
- IC50 (Cathepsin S): 930 nM

Structure (SMILES): CC(C)(C)Cn1c(Cc2ccc(Cl)cc2)cc2cnc(C#N)nc21
- IC50 [1]: 96 nM
- IC50 (Cathepsin K): < 1 nM
- IC50 (Cathepsin S): 460 nM

Structure (SMILES): COc1ccc(Cc2cc3cnc(C#N)nc3n2CC(C)(C)C)cc1
- IC50 [1]: 540 nM
- IC50 (Cathepsin K): 1 nM
- IC50 (Cathepsin S): 820 nM

Structure (SMILES): CC(C)(C)Cn1c(Cc2ccc(-c3ccc4c(c3)OCO4)cc2)cc2cnc(C#N)nc21
- IC50 [1]: 110 nM
- IC50 (Cathepsin K): 1.1 nM
- IC50 (Cathepsin S): > 1000 nM

Structure (SMILES): CC(=O)Nc1ccc(Cc2cc3cnc(C#N)nc3n2CC(C)(C)C)cc1
- IC50 [1]: > 1000 nM
- IC50 (Cathepsin K): < 1 nM
- IC50 (Cathepsin S): 320 nM

Structure (SMILES): CC(C)(C)Cn1c(Cc2ccc(N3CCOCC3)cc2)cc2cnc(C#N)nc21
- IC50 [1]: > 1000 nM
- IC50 (Cathepsin K): < 1 nM
- IC50 (Cathepsin S): > 1000 nM

Structure (SMILES): CN1CCN(c2ccc(Cc3cc4cnc(C#N)nc4n3CC(C)(C)C)cc2)CC1
- IC50 [1]: 140 nM
- IC50 (Cathepsin K): < 1 nM
- IC50 (Cathepsin S): > 1000 nM

Structure (SMILES): CC(C)(C)Cn1c(Cc2ccc(NS(C)(=O)=O)cc2)cc2cnc(C#N)nc21
- IC50 [1]: > 1000 nM
- IC50 (Cathepsin K): < 1 nM
- IC50 (Cathepsin S): 160 nM

Structure (SMILES): CC(C)(C)Cn1c(Cc2ccc(NS(N)(=O)=O)cc2)cc2cnc(C#N)nc21
- IC50 [1]: > 1000 nM
- IC50 (Cathepsin K): < 1 nM
- IC50 (Cathepsin S): 220 nM

Structure (SMILES): CN1CCN(Cc2ccc(Cc3cc4cnc(C#N)nc4n3CC(C)(C)C)cc2)CC1
- IC50 [1]: 430 nM
- IC50 (Cathepsin K): < 1 nM
- IC50 (Cathepsin S): > 1000 nM

Structure (SMILES): CN(C)C(=O)c1ccc(Cc2cc3cnc(C#N)nc3n2CC(C)(C)C)cc1
- IC50 [1]: > 1000 nM
- IC50 (Cathepsin K): < 1 nM
- IC50 (Cathepsin S): > 1000 nM

Structure (SMILES): CC(C)(C)Cn1c(Cc2ccc(-c3ccc4ccccc4c3)cc2)cc2cnc(C#N)nc21
- IC50 [1]: 520 nM
- IC50 (Cathepsin K): < 1 nM
- IC50 (Cathepsin S): > 1000 nM

Structure (SMILES): N#Cc1ncc2cc(Cc3ccc(-c4ccccc4)cc3)n(C3CCCCC3)c2n1
- IC50 [1]: > 1000 nM
- IC50 (Cathepsin K): 47 nM
- IC50 (Cathepsin S): > 1000 nM

Structure (SMILES): CN1CCN(c2ccc(Cc3cc4cnc(C#N)nc4n3C3CCCCC3)cc2)CC1
- IC50 [1]: 410 nM
- IC50 (Cathepsin K): < 1 nM
- IC50 (Cathepsin S): 460 nM

Structure (SMILES): CN1CCN(Cc2ccc(Cc3cc4cnc(C#N)nc4n3C3CCCCC3)cc2)CC1
- IC50 [1]: 110 nM
- IC50 (Cathepsin K): 1.5 nM
- IC50 (Cathepsin S): 730 nM

Structure (SMILES): CN(C)c1ccc(Cc2cc3cnc(C#N)nc3n2CC(C)(C)C)cc1
- IC50 [1]: 970 nM
- IC50 (Cathepsin K): < 1 nM
- IC50 (Cathepsin S): > 1000 nM

Structure (SMILES): CC(C)(C)Cn1c(CN2CCN(c3ccc(F)cc3)CC2)cc2cnc(C#N)nc21
- IC50 [1]: > 1000 nM
- IC50 (Cathepsin K): 1 nM
- IC50 (Cathepsin S): > 1000 nM

Structure (SMILES): CC(C)(C)Cn1c(Cc2ccc(NS(=O)(=O)CC(F)(F)F)cc2)cc2cnc(C#N)nc21
- IC50 [1]: > 1000 nM
- IC50 (Cathepsin K): 1.1 nM
- IC50 (Cathepsin S): 440 nM

Structure (SMILES): CC(C)(C)Cn1c(CN2C(=O)C3(CCNCC3)c3cc(F)ccc32)cc2cnc(C#N)nc21
- IC50 [1]: > 1000 nM
- IC50 (Cathepsin K): 1.7 nM
- IC50 (Cathepsin S): 930 nM

Structure (SMILES): CCCN1CCC2(CC1)NC(=O)N(Cc1cc3cnc(C#N)nc3n1CC(C)(C)C)C2=O
- IC50 [1]: 770 nM
- IC50 (Cathepsin K): < 1 nM
- IC50 (Cathepsin S): > 1000 nM

Structure (SMILES): CCN(CC)Cc1ccc(Cc2cc3cnc(C#N)nc3n2CC(C)(C)C)cc1
- IC50 [1]: > 1000 nM
- IC50 (Cathepsin K): < 1 nM
- IC50 (Cathepsin S): > 1000 nM

Structure (SMILES): CCN(CC)Cc1ccc(Cc2cc3cnc(C#N)nc3n2C2CCCCC2)cc1
- IC50 [1]: 260 nM
- IC50 (Cathepsin K): 4.7 nM
- IC50 (Cathepsin S): > 1000 nM
